Results: patent US20240368161A1, “CYCLOPROPANECARBOXAMIDE-CONTAINING COMPOUNDS AND APPLICATION THEREOF” (CGENETECH (SUZHOU, CHINA) CO., LTD., priority 2022, published 2024)
Read-outs that look alike come from different tables or passages of the source.

What was measured:
JAK1 = JAK1 (Homo sapiens (Human), UniProt P23458); assay: JAK1 kinase inhibitory activity determination (HTRF Kinase-TK); format: biochemical; details: JAK1 0.32 ng/μL, ATP 4 μM, substrate 1 μM, 4 h
Protocol: (§1) • JAK1: 0.32 ng/μL, ATP 4 M, substrate 1 μM, time 4 h • JAK2: 0.008 ng/μL, ATP 4 μM, substrate 1 M, time 2 h • JAK3: 0.1 ng/μL, ATP 3 μM, substrate 1 μM, time 3 h
(§2) The half-maximal inhibitory concentration (IC50) was fitted using GraphPad Prism 6 based on the kinase inhibition rates of the compound to be tested at different concentrations.

JAK2 = JAK2 (Homo sapiens (Human), UniProt O60674); assay: JAK2 kinase inhibitory activity determination (HTRF Kinase-TK); format: biochemical; details: JAK2 0.008 ng/μL, ATP 4 μM, substrate 1 μM, 2 h
Protocol: as §1, §2

JAK3 = JAK3 (Homo sapiens (Human), UniProt P52333); assay: JAK3 kinase inhibitory activity determination (HTRF Kinase-TK); format: biochemical; details: JAK3 0.1 ng/μL, ATP 3 μM, substrate 1 μM, 3 h
Protocol: as §1
At the end of incubation, HTRF665/620 signals were read on a multifunctional microplate reader.
as §2

[1] = Oral pharmacokinetic determination in mice; format: in vivo, C57 mice; details: for AUC(0-inf) / AUC(0-t) / Cmax / Tmax / MRT last / MRT inf / half-life: mouse, male C57 mice, plasma; for MRT last: read-out: MRT(0-t); for MRT inf: read-out: MRT(0-∞); for half-life: read-out: T½ (converted)
Protocol: Three healthy male C57 mice, aged 6-8 weeks, were purchased from Shanghai Sippr-BK Laboratory Animal Co. Ltd. (Shanghai, China).
Mice were fasted overnight prior to oral administration, and food supply was resumed 4 h after administration with free access to water. […] blood sampling; approximately 30 μL of blood was collected from the tested animals at 0.125 h, 0.25 h, 0.5 h, 1 h, 2 h, 4 h, 8 h, and 24 h, respectively, after administration and placed in test tubes containing the anticoagulant sodium heparin, which were placed on ice until centrifugation, and within 15 min, centrifuged in a centrifuge at 6800 g for 6 min at 6-8° C., and within 1 h of blood collection/centrifugation, plasma was transferred to appropriately labeled tubes and stored frozen at about −80° C.
Mass spectrometry method: LC-MS/MS-19 (TQ5500) (SCIEX, USA), ion source: ESI source, detection mode: positive ion detection, scanning mode: multi-reaction monitoring (MRM) mode, m/z: 271.10/172.00 Da (Tolbutamide, internal standard).
To 10 μL of the plasma sample, was added 200 μL of internal standard working solution (Tolbutamide, 100 ng/mL), with vortex for 1 min, followed by centrifugation for 10 min at 18,000 g. 200 μL of a supernatant was transferred to a 96-well low volume plate, and 1 μL of the supernatant was taken and injected into LC-MS/MS for analysis.
Pharmacokinetic (PK) parameters were calculated using Phoenix WinNonlin 7.0 software, and oral pharmacokinetic parameters of mice including AUC, Cmax, Tmax, T½, etc., were estimated by the non-compartment model.

JAK2, sequence (O60674 826-1132): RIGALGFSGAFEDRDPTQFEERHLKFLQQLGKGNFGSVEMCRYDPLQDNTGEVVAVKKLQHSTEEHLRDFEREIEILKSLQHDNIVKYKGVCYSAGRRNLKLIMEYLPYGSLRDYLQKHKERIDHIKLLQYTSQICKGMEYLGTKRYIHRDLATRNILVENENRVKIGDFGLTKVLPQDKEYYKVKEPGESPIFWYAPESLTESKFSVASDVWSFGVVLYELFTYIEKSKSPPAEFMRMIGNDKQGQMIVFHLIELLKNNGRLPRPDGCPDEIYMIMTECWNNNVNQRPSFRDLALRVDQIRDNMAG
JAK1, sequence (P23458 866-1154): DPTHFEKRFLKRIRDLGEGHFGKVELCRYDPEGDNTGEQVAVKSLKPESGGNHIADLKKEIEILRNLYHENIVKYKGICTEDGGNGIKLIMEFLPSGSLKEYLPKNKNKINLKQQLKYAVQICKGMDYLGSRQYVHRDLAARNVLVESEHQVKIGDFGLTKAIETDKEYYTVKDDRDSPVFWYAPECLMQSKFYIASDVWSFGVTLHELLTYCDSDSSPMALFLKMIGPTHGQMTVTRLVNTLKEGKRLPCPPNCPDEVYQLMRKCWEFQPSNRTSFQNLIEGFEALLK
JAK3, sequence (P52333 795-1124): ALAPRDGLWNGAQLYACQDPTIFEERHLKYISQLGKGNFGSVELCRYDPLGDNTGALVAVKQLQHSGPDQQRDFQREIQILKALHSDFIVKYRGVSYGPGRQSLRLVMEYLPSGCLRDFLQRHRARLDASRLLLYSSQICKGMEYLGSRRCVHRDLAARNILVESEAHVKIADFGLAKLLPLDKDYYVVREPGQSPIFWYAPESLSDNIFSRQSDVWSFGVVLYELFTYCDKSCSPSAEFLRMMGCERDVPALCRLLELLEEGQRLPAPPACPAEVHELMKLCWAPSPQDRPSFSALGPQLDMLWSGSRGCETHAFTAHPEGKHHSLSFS

Row | IC50 (JAK1) [nM] | IC50 (JAK2) [nM] | IC50 (JAK3) [nM] | SMILES | also measured
1 | 37.8 | 6.87 | – | N#CCC(CC1CC1)n1cc(-c2cccc3nc(NC(=O)C4CC4)cn23)cn1 (centres unmarked) [Compound 3] | –
2 | 19.5 | 4.68 | – | CCC(CC#N)n1cc(-c2cccc3nc(NC(=O)C4CC4)cn23)cn1 (centres unmarked) [Compound 4] | –
3 | 48.9 | 9.49 | – | COCC(CC#N)n1cc(-c2cccc3nc(NC(=O)C4CC4)cn23)cn1 (centres unmarked) [Compound 6] | –
4 | 7.62 | 1.72 | – | CCCCC(CC#N)n1cc(-c2cccc3nc(NC(=O)C4CC4)cn23)cn1 (centres unmarked) [Compound 7] | –
5 | 28.3 | 13.4 | – | COCCC(CC#N)n1cc(-c2cccc3nc(NC(=O)C4CC4)cn23)cn1 (centres unmarked) [Compound 9] | –
6 | 6.64 | 1.24 | – | N#CCC(CCC(F)(F)F)n1cc(-c2cccc3nc(NC(=O)C4CC4)cn23)cn1 (centres unmarked) [Compound 10] | –
7 | 10 | 0.7 | – | N#CCC1(n2cc(-c3cccc4nc(NC(=O)C5CC5)cn34)cn2)CCC(F)(F)CC1 [Compound 12] | –
8 | 8.4 | 0.8 | 46.8 | N#CCC1(n2cc(-c3cccc4nc(NC(=O)C5CC5)cn34)cn2)CCC(C(F)(F)F)CC1 (centres unmarked) [Compound 13] | –
9 | – | – | – | CS(=O)(=O)C1CN(Cc2ccc(-c3cccc4nc(NC(=O)C5CC5)cn34)cc2)C1 [Compound 15] | systemic exposure (AUC) per unit dose compared to Filgotinib ([1]; mice, oral, unit dose comparison): higher systemic exposure; AUC(0-inf) ([1]; oral (gavage), dose 10 mg/kg): 9880 ng·h/mL; AUC(0-t) ([1]; oral (gavage), dose 10 mg/kg): 9750 ng·h/mL; Cmax ([1]; oral (gavage), dose 10 mg/kg): 6220 ng/mL; Tmax ([1]; oral (gavage), dose 10 mg/kg): 0.29 h; MRT last ([1]; oral (gavage), dose 10 mg/kg): 1.6 h; MRT inf ([1]; oral (gavage), dose 10 mg/kg): 1.7 h; half-life ([1]; oral (gavage), dose 10 mg/kg): 1.31 h
10 | 182 | 90.3 | 909 | O=C(Nc1nc2cccc(-c3ccc(OC4CCS(=O)(=O)CC4)cc3)n2n1)C1CC1 [Compound 19] | –
11 | 3640 | 1580 | > 10000 | O=C(Nc1nc2cccc(-c3ccc(CN4CCS(=O)(=O)CC4)cc3)n2n1)C1(F)CC1 [Compound 24] | –
12 | 590 | 1980 | 7780 | O=C(Nc1nc2cccc(-c3ccc(CN4CCS(=O)(=O)CC4)cc3)n2n1)C1CC1(F)F (centres unmarked) [Compound 25] | –
13 | 26.2 | 24.2 | 94.9 | O=C(Nc1cn2c(-c3ccc(CN4CCC(F)(F)CC4)cc3)cccc2n1)C1CC1 [Compound 28] | –
14 | 88.7 | 170 | 6110 | O=C(Nc1cn2c(-c3ccc(CN4CCS(=O)(=O)CC4)cc3F)cccc2n1)C1CC1F (centres unmarked) [Compound 29] | –
15 | 387 | 162 | 5590 | CCS(=O)(=O)C1CCN(Cc2ccc(-c3cccc4nc(NC(=O)C5CC5)cn34)cc2)CC1 [Compound 30] | –
16 | 956 | 448 | 9640 | CC(C)S(=O)(=O)C1CCN(Cc2ccc(-c3cccc4nc(NC(=O)C5CC5)cn34)cc2)CC1 [Compound 32] | –
17 | 675 | 463 | 8280 | CC(C)CS(=O)(=O)C1CCN(Cc2ccc(-c3cccc4nc(NC(=O)C5CC5)cn34)cc2)CC1 [Compound 33] | –
18 | – | – | – | O=C(Nc1nc2cccc(-c3ccc(CN4CCS(=O)(=O)CC4)cc3)n2n1)C1CC1 [Filgotinib, reference compound] | AUC(0-inf) ([1]; oral, dose 5 mg/kg): 2190 ng·h/mL; AUC(0-t) ([1]; oral, dose 5 mg/kg): 2120 ng·h/mL; Cmax ([1]; oral, dose 5 mg/kg): 1710 ng/mL; Tmax ([1]; oral, dose 5 mg/kg): 0.25 h; MRT last ([1]; oral, dose 5 mg/kg): 1.54 h; MRT inf ([1]; oral, dose 5 mg/kg): 1.82 h; half-life ([1]; oral, dose 5 mg/kg): 1.79 h

Row | SMILES | IC50 (JAK1) [nM] | IC50 (JAK2) [nM] | IC50 (JAK3) [nM] | also measured
19 | N#CCC(C1CCCC1)n1cc(-c2cccc3nc(NC(=O)C4CC4)cn23)cn1 (centres unmarked) [Compound 1] | 57.6 | 4.13 | – | –
20 | N#CCC(C1CC1)n1cc(-c2cccc3nc(NC(=O)C4CC4)cn23)cn1 (centres unmarked) [Compound 2] | 77 | 13.5 | – | –
21 | CCCC(CC#N)n1cc(-c2cccc3nc(NC(=O)C4CC4)cn23)cn1 (centres unmarked) [Compound 5] | 14 | 1.81 | – | –
22 | N#CCC(C1CCCC1)n1cc(-c2cccc3nc(NC(=O)C4CC4)nn23)cn1 (centres unmarked) [Compound 11] | 36.6 | 6.28 | – | –
23 | N#CCC1(n2cc(-c3cccc4nc(NC(=O)C5CC5)cn34)cn2)CCCCC1 [Compound 14] | 115 | 6.7 | – | –
24 | O=C(Nc1cn2c(-c3ccc(ON4CC[S+]([O-])CC4)cc3)cccc2n1)C1CC1 [Compound 21] | 247 | 592 | – | –
25 | O=C(Nc1nc2cccc(-c3ccc(CN4CCS(=O)(=O)CC4)cc3)n2n1)C1C[C@H]1F (some centres unmarked) [Compound 26] | 1250 | 1090 | 3450 | –
26 | O=C(Nc1nc2cccc(-c3ccc(CN4CCS(=O)(=O)CC4)cc3)n2n1)C1C[C@@H]1F (some centres unmarked) [Compound 27] | 1080 | 415 | 1920 | –
